These results are taken from ChEMBL document CHEMBL1147626, “Determination of the stable conformation of GABA(A)-benzodiazepine receptor bivalent ligands by low temperature NMR and X-ray analysis” (Bioorg Med Chem Lett, 2004).

The assay addresses T1, GABA-A receptor; alpha-3/beta-3/gamma-2 (Homo sapiens, UniProt P18507+P28472+P34903).
T1 sequence (P18507 whole entry): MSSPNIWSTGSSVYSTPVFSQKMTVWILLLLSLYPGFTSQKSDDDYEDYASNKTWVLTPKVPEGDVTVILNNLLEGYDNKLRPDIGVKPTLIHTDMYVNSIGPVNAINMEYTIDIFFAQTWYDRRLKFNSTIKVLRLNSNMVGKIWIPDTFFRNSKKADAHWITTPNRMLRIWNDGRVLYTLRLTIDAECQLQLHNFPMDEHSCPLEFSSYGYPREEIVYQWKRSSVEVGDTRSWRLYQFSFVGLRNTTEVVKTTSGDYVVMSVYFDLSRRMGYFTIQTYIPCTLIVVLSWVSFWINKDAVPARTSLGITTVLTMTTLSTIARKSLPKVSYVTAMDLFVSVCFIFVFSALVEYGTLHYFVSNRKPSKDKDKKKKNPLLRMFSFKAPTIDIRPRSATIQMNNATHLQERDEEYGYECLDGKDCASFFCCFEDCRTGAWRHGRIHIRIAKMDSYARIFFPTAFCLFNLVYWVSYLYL
T1 sequence (P28472 whole entry): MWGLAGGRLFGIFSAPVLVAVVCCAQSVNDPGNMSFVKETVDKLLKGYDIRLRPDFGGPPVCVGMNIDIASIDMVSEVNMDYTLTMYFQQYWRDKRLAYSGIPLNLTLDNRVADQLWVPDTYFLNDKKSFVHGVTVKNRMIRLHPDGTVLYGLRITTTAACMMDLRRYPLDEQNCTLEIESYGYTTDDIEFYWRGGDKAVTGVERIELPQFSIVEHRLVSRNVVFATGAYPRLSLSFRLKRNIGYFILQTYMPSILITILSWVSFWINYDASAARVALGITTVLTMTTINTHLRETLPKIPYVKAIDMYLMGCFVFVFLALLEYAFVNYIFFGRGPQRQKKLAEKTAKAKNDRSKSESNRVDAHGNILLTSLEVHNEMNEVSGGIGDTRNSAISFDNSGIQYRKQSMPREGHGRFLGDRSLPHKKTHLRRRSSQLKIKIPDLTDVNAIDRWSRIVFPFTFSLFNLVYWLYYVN
T1 sequence (P34903 whole entry): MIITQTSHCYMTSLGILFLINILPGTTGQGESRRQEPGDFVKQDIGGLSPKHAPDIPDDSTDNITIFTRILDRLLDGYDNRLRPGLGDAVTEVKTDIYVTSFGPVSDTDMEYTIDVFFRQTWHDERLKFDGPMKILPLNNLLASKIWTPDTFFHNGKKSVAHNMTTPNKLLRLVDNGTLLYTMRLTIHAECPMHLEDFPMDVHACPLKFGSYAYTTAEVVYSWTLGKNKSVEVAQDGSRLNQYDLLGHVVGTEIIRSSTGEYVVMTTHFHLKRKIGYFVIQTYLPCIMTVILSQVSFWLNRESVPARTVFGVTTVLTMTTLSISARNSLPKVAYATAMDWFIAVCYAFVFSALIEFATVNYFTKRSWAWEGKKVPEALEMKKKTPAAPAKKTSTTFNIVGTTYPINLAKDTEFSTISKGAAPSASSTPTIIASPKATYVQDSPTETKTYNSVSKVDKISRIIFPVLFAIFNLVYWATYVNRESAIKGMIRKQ
Nature of the assay: In vitro inhibition of [3H]-Ro- 15-1788 binding to human GABA-A receptor alpha-3-beta-3-gamma-2 subunits expressed in L(tk-)cells. Format: cell-based.

`C#Cc1ccc2c(c1)C(=O)N(C)Cc1c(C(=O)OCCCOC(=O)c3ncn4c3CN(C)C(=O)c3cc(C#C)ccc3-4)ncn1-2`: the affinity, expressed as Ki, was 858 nM.
